Test results as given in patent US10059741B2 (priority 2015, dated 2018).
Values joined by “and” are separate entries in the source; they are usually repeats but may differ in a detail not shown here. Equal values may be shown once. Read-outs that look alike come from different tables or passages of the source. Bridge positions count the residues as written; N and C are the ends. Square brackets hold non-standard residues; d marks the D form. Peptide text beside a SMILES is read from it. S5 = C=CCCC[C@](C)(N)C(=O)O; Nle = CCCC[C@H](N)C(=O)O; Aib = CC(C)(N)C(=O)O

Tests used:
[1] = test system: H1N1 California/07/2009; test: microbe, parasite or virus in culture; format: cell-based, influenza A virus
[2] = test system: H3N2 Perth/16/2009; test: microbe, parasite or virus in culture; format: cell-based, influenza A virus
[3] = test system: H1N1 California/07/2009; test: microbe, parasite or virus in culture; format: cell-based, influenza A virus; conditions: read-out: EC50 (μM) H1N1 California/07/2009
[4] = test system: H3N2 Perth/16/2009; test: microbe, parasite or virus in culture; format: cell-based, influenza A virus; remark: listed apart in the source
[5] = test system: H1N1 A/Solomon Island/03/2006; format: cell-based, influenza A virus; conditions: read-out: EC50 (μM), Cytopathic effect by Neutral Red
[6] = test system: H1N1 A/Brisbane/59/2007; test: Cytopathic effect (CPE) inhibition in MDCK cells, neutral red; format: cell-based, influenza A virus
[7] = test system: H5N1 A/Hong Kong/213/2003; test: microbe, parasite or virus in culture; format: cell-based, influenza A virus
[8] = test system: H7N9 A/Anhui/1/2013; test: microbe, parasite or virus in culture; format: cell-based, influenza A virus
[9] = test system: Influenza B Florida/04/2006; test: Cytopathic effect (CPE) inhibition in MDCK cells, neutral red; format: cell-based
[10] = test system: Influenza B Brisbane/60/2008; test: as above; format: cell-based
[11] = test system: influenza virus, various viral strains; test: Influenza antiviral evaluation assay (CPE, neutral red dye uptake) in MDCK cells against various viral strains (Tables 8, 9); format: cell-based
[12] = test system: influenza virus, various viral strains; format: cell-based
[13] = test system: Influenza A H3N2 Influenza A/Brisbane/10/2007; test: microbe, parasite or virus in culture; format: cell-based, influenza A virus
[14] = test system: Influenza A H1N1 Influenza A/California/7/2009; test: microbe, parasite or virus in culture; format: cell-based, influenza A virus
[15] = test system: Influenza B/Brisbane/60/2008; test: microbe, parasite or virus in culture; format: cell-based
[16] = test system: Influenza A H1N1 Influenza A/Texas/4/2009; test: microbe, parasite or virus in culture; format: cell-based, influenza A virus
[17] = test system: H1N1 A/PR/8/34; conditions: read-out: EC50 (μM), Cytopathic effect by Neutral Red
[18] = mouse, in vivo
[19] = in vitro; conditions: dog
[20] = read-out: EC50 (μM) H3N2 Perth/16/2009
[21] = read-out: EC50 (μM), Cytopathic effect by Neutral Red

CCCC[C@H](NC(C)=O)C(=O)N[C@@H](CC(=O)O)C(=O)N[C@H](C(=O)N[C@@H](CC(N)=O)C(=O)N[C@@]1(C)CCCC=CCCC[C@@](C)(C(=O)N[C@@H](CC(C)C)C(=O)N[C@@H](C)C(=O)N[C@H](C(=O)NC(C)(C)C(=O)N[C@@H](C)C(=O)N[C@@H](CCC(N)=O)C(N)=O)C(C)C)NC(=O)[C@H](CC(C)C)NC(=O)[C@H](CC(C)C)NC(=O)[C@H]([C@@H](C)O)NC1=O)C(C)C [SP-6] (Ac-[Nle]DVN[S5]TLL[S5]LAV[Aib]AQ-NH2; staple 5-9) gave an EC50 ([1]; read-out: EC50 (μM) H1N1 California/07/2009) of 10 to 25 µM, an EC90 ([1]; read-out: EC90) greater than 36 µM and an EC90 [2] of 22 µM. For the same molecule, the EC50 [2, 20] was 25 to 50 µM, the EC50 [3] was 10 to 25 µM and the EC50 [4, 20] was 25 to 50 µM. For the same molecule, the EC50 [4, 21] was 1.5 to 10 µM, the EC50 [5] was 1.5 to 10 µM and < 1.5 µM and the EC50 ([6]; read-out: EC50) was 5.6 µM and 5.5 µM. The EC50 [6, 21] was 1.5 to 10 µM, the EC50 ([7]; read-out: EC50) was greater than 100 µM and the EC50 [7, 21] was greater than 50 µM. It also gave an EC50 ([8]; read-out: EC50) greater than 100 µM, an EC50 [8, 21] greater than 50 µM and an EC50 ([9]; read-out: EC50) of 18 µM. It also gave an EC50 [9, 21] of 10 to 25 µM, an EC50 ([10]; read-out: EC50) of 7.1 µM and an EC50 [10, 21] of 1.5 to 10 µM. The “antiviral activity across influenza strains” value [11] was “broad antiviral activity”, the EC50 [12] was greater than 100 µM and the EC90 [12] was > 100 µM and 66 µM and 65 µM. It also gave an EC50 ([13]; read-out: EC50) greater than 100 µM, an EC90 ([13]; read-out: EC90) greater than 100 µM and an EC50 ([14]; read-out: EC50) greater than 100 µM. It also gave an EC90 ([14]; read-out: EC90) greater than 100 µM, an EC50 [15] greater than 100 µM and an EC90 [15] greater than 100 µM. The EC50 ([16]; read-out: EC50) was greater than 100 µM, the EC90 ([16]; read-out: EC90) was greater than 100 µM and the EC50 [17] was 10 to 25 µM. For the same molecule, the survival [18] was “all mice survived”, the CC50 ([19]; CC50) was greater than 100 µM and the CC50 ([19]; CC50 (μM) H1N1 California/07/2009, Cell cytotoxicity (CC), run with H1N1 California/07/2009) was greater than 100 µM. For the same molecule, the CC50 ([19]; CC50 (μM) H3N2 Perth/16/2009, Cell cytotoxicity (CC), run with H3N2 Perth/16/2009) was greater than 100 µM, the CC50 ([19]; CC50, MDCK cells, run with Influenza A H1N1 Brisbane/59/2007, Neutral Red) was greater than 100 µM and the CC50 ([19]; CC50, MDCK cells, run with Influenza A H1N1 Brisbane/59/2007, Visual) was greater than 100 µM. For the same molecule, the CC50 ([19]; CC50, MDCK cells, run with Influenza A H1N1 California/04/2009-M, Neutral Red) was greater than 100 µM, the CC50 ([19]; CC50, MDCK cells, run with Influenza A H1N1 California/04/2009-M, Visual) was greater than 100 µM and the CC50 ([19]; CC50, MDCK cells, run with Influenza A H1N1 California/07/2009, VYR/Neutral Red) was greater than 100 µM. For the same molecule, the CC50 ([19]; CC50, MDCK cells, run with Influenza A H1N1 Solomon Is./3/2006-M, Neutral Red) was greater than 100 µM, the CC50 ([19]; CC50, MDCK cells, run with Influenza A H1N1 Solomon Is./3/2006-M, Visual) was greater than 100 µM and the CC50 ([19]; CC50, MDCK cells, run with Influenza A H1N1 Solomon Is./03/2006, Neutral Red) was greater than 100 µM. The CC50 ([19]; CC50, MDCK cells, run with Influenza A H1N1 Solomon Is./03/2006, Visual) was greater than 100 µM, the CC50 ([19]; CC50, MDCK cells, run with Influenza A H3N2 Perth/16/2009, Neutral Red) was greater than 100 µM and the CC50 ([19]; CC50, MDCK cells, run with Influenza A H3N2 Perth/16/2009, VYR/Neutral Red) was greater than 100 µM. It also gave a CC50 ([19]; CC50, MDCK cells, run with Influenza A H3N2 Perth/16/2009, Visual) greater than 100 µM, a CC50 ([19]; CC50, MDCK cells, run with Influenza A H3N2 Victoria/3/75-M, Neutral Red) greater than 100 µM and a CC50 ([19]; CC50, MDCK cells, run with Influenza A H3N2 Victoria/3/75-M, Visual) greater than 100 µM. It also gave a CC50 ([19]; CC50, MDCK cells, run with Influenza B Brisbane/60/2008, Neutral Red) greater than 100 µM, a CC50 ([19]; CC50, MDCK cells, run with Influenza B Brisbane/60/2008, Visual) greater than 100 µM and a CC50 ([19]; CC50, MDCK cells, run with Influenza B Florida/04/2006, Neutral Red) of 98 µM. For the same molecule, the CC50 ([19]; CC50, MDCK cells, run with Influenza B Florida/04/2006, Visual) was greater than 100 µM, the CC50 ([19]; CC50, MDCK cells, run with Influenza B Sichuan/379/99-M, Neutral Red) was greater than 100 µM and the CC50 ([19]; CC50, MDCK cells, run with Influenza B Sichuan/379/99-M, Visual) was greater than 100 µM. For the same molecule, the CC50 ([19]; CC50, run with Influenza A H3N2 Perth/16/2006 (so in the source), Neutral Red) was greater than 100 µM and the CC50 ([19]; CC50, run with Influenza A H3N2 Perth/16/2006 (so in the source), Visual) was greater than 100 µM.
